Results taken from PMC11031313 (Cell chemical biology, 2024).

Key:
HIV-1 Nef (SF2 variant) = HIV-1 Nef (SF2 variant) (Human immunodeficiency virus type 1 group M subtype B, UniProt P03407); format: cell-based; settings: 293T cells, PROTAC 10 μM, 24 h
[1] = target: Nef (NL4-3 variant) and CRBN thalidomide-binding domain (UniProt P03406+Q96SW2, A33V/T15A/T51N/V11I); test: PROTAC-mediated ternary complex formation in vitro; settings: 25 μM of each protein, 5-, 10- or 20-fold molar excess of PROTAC
Chain of Nef (NL4-3 variant) and CRBN thalidomide-binding domain (Q96SW2 317-425, other chains not shown): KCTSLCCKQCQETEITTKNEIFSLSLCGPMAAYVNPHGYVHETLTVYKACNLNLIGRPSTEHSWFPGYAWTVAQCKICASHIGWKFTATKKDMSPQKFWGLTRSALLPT

Nef-eGFP fusion protein = Nef-eGFP fusion protein (UniProt P03406+Q96SW2); test: Nef-eGFP protein loss in CEM/Nef-eGFP cells by flow cytometry; format: cell-based, HIV-1; settings: 3 μM, 24 h
Chain of Nef-eGFP fusion protein (Q16531 whole entry, other chains not shown, the tested form may be a part): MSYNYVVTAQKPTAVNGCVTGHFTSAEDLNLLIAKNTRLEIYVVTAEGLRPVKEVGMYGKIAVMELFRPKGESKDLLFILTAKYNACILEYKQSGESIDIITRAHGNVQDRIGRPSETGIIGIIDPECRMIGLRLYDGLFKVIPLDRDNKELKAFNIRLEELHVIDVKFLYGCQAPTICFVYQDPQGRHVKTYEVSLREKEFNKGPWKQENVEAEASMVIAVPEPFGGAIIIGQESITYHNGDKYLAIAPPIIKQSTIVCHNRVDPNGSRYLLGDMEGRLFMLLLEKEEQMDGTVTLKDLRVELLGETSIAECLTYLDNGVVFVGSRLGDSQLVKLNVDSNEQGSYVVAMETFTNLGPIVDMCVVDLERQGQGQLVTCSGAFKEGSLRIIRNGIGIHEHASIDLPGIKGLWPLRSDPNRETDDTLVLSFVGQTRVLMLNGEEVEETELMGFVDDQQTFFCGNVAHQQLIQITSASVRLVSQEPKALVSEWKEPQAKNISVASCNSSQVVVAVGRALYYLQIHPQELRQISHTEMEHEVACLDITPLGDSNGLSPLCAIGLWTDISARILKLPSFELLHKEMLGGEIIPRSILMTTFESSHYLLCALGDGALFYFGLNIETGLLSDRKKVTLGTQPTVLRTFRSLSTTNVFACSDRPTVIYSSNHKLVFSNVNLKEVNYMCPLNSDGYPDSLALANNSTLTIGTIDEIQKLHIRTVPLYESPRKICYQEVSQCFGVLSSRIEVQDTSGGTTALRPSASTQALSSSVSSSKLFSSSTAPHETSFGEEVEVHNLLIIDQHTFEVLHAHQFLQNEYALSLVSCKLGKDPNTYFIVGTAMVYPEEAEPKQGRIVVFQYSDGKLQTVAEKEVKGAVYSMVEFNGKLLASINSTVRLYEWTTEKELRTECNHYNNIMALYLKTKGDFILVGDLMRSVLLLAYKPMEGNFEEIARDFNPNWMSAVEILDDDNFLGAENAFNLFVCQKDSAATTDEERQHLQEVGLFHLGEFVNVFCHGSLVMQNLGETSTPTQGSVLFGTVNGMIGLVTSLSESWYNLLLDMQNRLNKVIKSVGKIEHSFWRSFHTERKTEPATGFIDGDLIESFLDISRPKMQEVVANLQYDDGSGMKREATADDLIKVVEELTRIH
Chain of Nef-eGFP fusion protein (Q96SW2 whole entry, other chains not shown, the tested form may be a part): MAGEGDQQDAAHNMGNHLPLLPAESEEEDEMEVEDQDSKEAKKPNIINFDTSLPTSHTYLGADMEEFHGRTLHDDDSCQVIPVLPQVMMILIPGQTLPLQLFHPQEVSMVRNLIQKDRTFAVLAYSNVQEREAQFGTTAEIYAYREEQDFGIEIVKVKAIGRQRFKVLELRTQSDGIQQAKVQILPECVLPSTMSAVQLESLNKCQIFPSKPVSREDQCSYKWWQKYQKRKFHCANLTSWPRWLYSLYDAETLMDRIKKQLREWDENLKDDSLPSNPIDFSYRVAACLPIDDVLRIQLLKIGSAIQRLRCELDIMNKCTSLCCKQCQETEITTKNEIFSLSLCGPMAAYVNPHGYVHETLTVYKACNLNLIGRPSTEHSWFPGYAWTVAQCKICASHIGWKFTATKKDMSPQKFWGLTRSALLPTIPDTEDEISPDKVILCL

IKZF1 (Ikaros) = IKZF1 (Ikaros) (Homo sapiens, UniProt Q13422); test: IKZF1 protein level in CEM/Nef-eGFP T cells; format: cell-based; settings: CEM/Nef-eGFP cells after Dox induction
Chain of IKZF1 (Ikaros) (Q13422 whole entry): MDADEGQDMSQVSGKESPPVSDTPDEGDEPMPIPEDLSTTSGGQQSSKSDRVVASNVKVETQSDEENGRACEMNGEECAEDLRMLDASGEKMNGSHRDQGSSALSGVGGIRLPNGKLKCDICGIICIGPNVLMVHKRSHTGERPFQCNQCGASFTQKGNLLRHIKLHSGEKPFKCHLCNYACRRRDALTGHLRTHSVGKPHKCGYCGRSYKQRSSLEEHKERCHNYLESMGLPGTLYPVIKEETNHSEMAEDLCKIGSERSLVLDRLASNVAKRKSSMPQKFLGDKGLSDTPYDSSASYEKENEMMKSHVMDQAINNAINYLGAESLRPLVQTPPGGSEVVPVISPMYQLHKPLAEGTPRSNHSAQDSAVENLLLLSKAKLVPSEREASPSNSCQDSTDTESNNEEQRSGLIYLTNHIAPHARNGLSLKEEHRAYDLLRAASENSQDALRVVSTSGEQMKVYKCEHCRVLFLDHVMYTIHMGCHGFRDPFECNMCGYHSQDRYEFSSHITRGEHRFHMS

[2] = target: HIV-1 Nef (NL4-3 variant) (Human immunodeficiency virus type 1, UniProt Q90VU7); test: SPR binding to HIV-1 Nef; settings: for binding kinetics with Nef (in words): SPR, 90 s association, 180 s dissociation
[3] = target: M-group HIV-1 Nef variants; test: SPR binding to M-group HIV-1 Nef variants; settings: HIV-1 Nef proteins
SIV Nef mac239 = SIV Nef mac239 (Simian immunodeficiency virus, UniProt Q5QGG3); test: SPR binding to SIV Nef mac239
HIV-1NL4-3 [4] = test: HIV-1 infectivity assay in TZM-bl reporter cells; format: cell-based; settings: Human immunodeficiency virus 1, TZM-bl, 48 h, read-out: IC50, HIV-1 infectivity
TZM-bl cells = test: Viability of uninfected TZM-bl cells; format: cell-based, human
HIV-1NL4-3 [5] = test: HIV-1 replication in donor PBMCs; format: cell-based; settings: 1 μM, 4 days
uninfected PBMCs = test: Viability of uninfected PBMCs; format: cell-based, human; settings: 1 μM, 4 days
[6] = tested on: Nef-mediated CD4 downregulation; test: Rescue of cell-surface CD4 in Dox-induced CEM/Nef-eGFP T cells; format: cell-based, human; settings: 3 μM, 24 h
[7] = tested on: Nef-mediated MHC-I downregulation; test: Rescue of cell-surface MHC-I in Dox-induced CEM/Nef-eGFP T cells; format: cell-based, human; settings: 3 μM, 24 h
[8] = target: thalidomide-binding domain of CRBN (Homo sapiens, UniProt Q96SW2); test: SPR binding to CRBN thalidomide-binding domain; settings: 90 s association, 180 s dissociation
Chain of thalidomide-binding domain of CRBN (Q96SW2 317-425): as the sequence (Q96SW2 317-425, other chains not shown) above

SMILES	induction of Nef ubiquitylation (in words) (HIV-1 Nef (SF2 variant))	ternary complex formation (in words) [1]	Nef-eGFP protein loss / Nef degradation (in words) (Nef-eGFP fusion protein)	binding kinetics with Nef (in words) [2]	Kd [3] [nM]	Kd (SIV Nef mac239) [nM]	cell-surface CD4 rescue (in words) [6]	cell-surface MHC-I rescue (in words) [7]	also measured
CN(CCNC(=O)COCCOc1ccc(CCc2c(-c3ccc(C(F)(F)F)cc3)nn(-c3nc4cc(Cl)ccc4[nH]3)c2O)cc1)c1cccc2c1C(=O)N(C1CCC(=O)NC1=O)C2=O (centres unmarked) [FC-13887, 2-[2-(4-{2-[1-(5-chloro-1H-1,3-benzodiazol-2-yl)-5-hydroxy-3-[4-(trifluoromethyl)phenyl]-1H-pyrazol-4-yl]ethyl}phenoxy)ethoxy]-N-(2-{[2-(2,6-dioxopiperidin-3-yl)-1,3-dioxo-2,3-dihydro-1H-isoindol-4-yl](methyl)amino}ethyl)acetamide]	active	induce ternary complexes of Nef with CRBN							z-score of normalized BRET ratio (Nef ubiquitylation) (HIV-1 Nef (SF2 variant)): 1.3
O=C(COc1ccc(CCc2c(-c3ccc(C(F)(F)F)cc3)nn(-c3nc4cc(Cl)ccc4[nH]3)c2O)cc1)NCCNc1cccc2c1C(=O)N(C1CCC(=O)NC1=O)C2=O (centres unmarked) [FC-14369, 2-(4-{2-[1-(5-chloro-1H-1,3-benzodiazol-2-yl)-5-hydroxy-3-[4-(trifluoromethyl)phenyl]-1H-pyrazol-4-yl]ethyl}phenoxy)-N-(2-{[2-(2,6-dioxopiperidin-3-yl)-1,3-dioxo-2,3-dihydro-1H-isoindol-4-yl]amino}ethyl)acetamide]	active		parallel loss in Nef expression	delayed dissociation	< 1000	< 1000			effect on the protein level of IKZF1 (IKZF1 (Ikaros)): reduced the expression of IKZF1; Kd [2]: 6.5 nM; IC50 (HIV-1NL4-3 [4]): ~250 nM; cytotoxicity (in words) (TZM-bl cells): without cytotoxicity
O=C(COCCOCCOCCCc1ccc(-c2nn(-c3nc4cc(Cl)ccc4[nH]3)c(O)c2CCc2ccc(F)cc2)cc1)NCCNc1cccc2c1C(=O)N(C1CCC(=O)NC1=O)C2=O (centres unmarked) [FC-13818, 2-{2-[2-(3-{4-[1-(5-chloro-1H-1,3-benzodiazol-2-yl)-4-[2-(4-fluorophenyl)ethyl]-5-hydroxy-1H-pyrazol-3-yl]phenyl}propoxy)ethoxy]ethoxy}-N-(2-{[2-(2,6-dioxopiperidin-3-yl)-1,3-dioxo-2,3-dihydro-1H-isoindol-4-yl]amino}ethyl)acetamide]		induce ternary complexes of Nef with CRBN							HIV-1 replication (in words) (HIV-1NL4-3 [5]): reduced HIV-1 replication below the level of the ΔNef mutant; reduction of viability (uninfected PBMCs): 20%
O=C(COCCOc1ccc(CCc2c(-c3ccc(C(F)(F)F)cc3)nn(-c3nc4cc(Cl)ccc4[nH]3)c2O)cc1)NCCNc1cccc2c1C(=O)N(C1CCC(=O)NC1=O)C2=O (centres unmarked) [FC-13182, 2-[2-(4-{2-[1-(5-chloro-1H-1,3-benzodiazol-2-yl)-5-hydroxy-3-[4-(trifluoromethyl)phenyl]-1H-pyrazol-4-yl]ethyl}phenoxy)ethoxy]-N-(2-{[2-(2,6-dioxopiperidin-3-yl)-1,3-dioxo-2,3-dihydro-1H-isoindol-4-yl]amino}ethyl)acetamide]			effectively induced Nef degradation				restored CD4 and MHC-I expression	restored CD4 and MHC-I expression	
O=C(COc1cccc2c1CN(C1CCC(=O)NC1=O)C2=O)NCCOCCOCCOCc1ccc(-c2nn(-c3nc4cc(Cl)ccc4[nH]3)c(O)c2CCc2ccc(F)cc2)cc1 (centres unmarked) [FC-12988, N-(2-{2-[2-({4-[1-(5-chloro-1H-1,3-benzodiazol-2-yl)-4-[2-(4-fluorophenyl)ethyl]-5-hydroxy-1H-pyrazol-3-yl]phenyl}methoxy)ethoxy]ethoxy}ethyl)-2-{[2-(2,6-dioxopiperidin-3-yl)-1-oxo-2,3-dihydro-1H-isoindol-4-yl]oxy}acetamide]		induce ternary complexes of Nef with CRBN	effectively induced Nef degradation	more rapid association and release compared to FC-13182			restored CD4 and MHC-I expression	restored CD4 and MHC-I expression	binding kinetics with CRBN thalidomide-binding domain (in words) [8]: associated more slowly than FC-13182 and showed a comparatively slow dissociation phase
O=C1CCC(N2Cc3c(OCC(=O)N4CCC(c5nn(-c6nc7cc(Cl)ccc7[nH]6)c(O)c5CCc5ccc(F)cc5)CC4)cccc3C2=O)C(=O)N1 (centres unmarked) [FC-14367, 3-[4-(2-{4-[1-(5-chloro-1H-1,3-benzodiazol-2-yl)-4-[2-(4-fluorophenyl)ethyl]-5-hydroxy-1H-pyrazol-3-yl]piperidin-1-yl}-2-oxoethoxy)-1-oxo-2,3-dihydro-1H-isoindol-2-yl]piperidine-2,6-dione]					< 1000	< 1000			
